Tests used:
Benzoate-CL = settings: cited from earlier work
TycA = biological target: T1, TycA (Brevibacillus parabrevis, UniProt P09095); assay: CoA ligase reaction kinetics, TycA; format: biochemical, Brevibacillus brevis
T1 construct: this wild-type tycA cDNA encoding the A-, T-, and E-domains was subcloned into a pSU18 vector; made in house; host or cells: Escherichia coli BL21(DE3)
T1 sequence (P09095 with tags, fused parts or gaps): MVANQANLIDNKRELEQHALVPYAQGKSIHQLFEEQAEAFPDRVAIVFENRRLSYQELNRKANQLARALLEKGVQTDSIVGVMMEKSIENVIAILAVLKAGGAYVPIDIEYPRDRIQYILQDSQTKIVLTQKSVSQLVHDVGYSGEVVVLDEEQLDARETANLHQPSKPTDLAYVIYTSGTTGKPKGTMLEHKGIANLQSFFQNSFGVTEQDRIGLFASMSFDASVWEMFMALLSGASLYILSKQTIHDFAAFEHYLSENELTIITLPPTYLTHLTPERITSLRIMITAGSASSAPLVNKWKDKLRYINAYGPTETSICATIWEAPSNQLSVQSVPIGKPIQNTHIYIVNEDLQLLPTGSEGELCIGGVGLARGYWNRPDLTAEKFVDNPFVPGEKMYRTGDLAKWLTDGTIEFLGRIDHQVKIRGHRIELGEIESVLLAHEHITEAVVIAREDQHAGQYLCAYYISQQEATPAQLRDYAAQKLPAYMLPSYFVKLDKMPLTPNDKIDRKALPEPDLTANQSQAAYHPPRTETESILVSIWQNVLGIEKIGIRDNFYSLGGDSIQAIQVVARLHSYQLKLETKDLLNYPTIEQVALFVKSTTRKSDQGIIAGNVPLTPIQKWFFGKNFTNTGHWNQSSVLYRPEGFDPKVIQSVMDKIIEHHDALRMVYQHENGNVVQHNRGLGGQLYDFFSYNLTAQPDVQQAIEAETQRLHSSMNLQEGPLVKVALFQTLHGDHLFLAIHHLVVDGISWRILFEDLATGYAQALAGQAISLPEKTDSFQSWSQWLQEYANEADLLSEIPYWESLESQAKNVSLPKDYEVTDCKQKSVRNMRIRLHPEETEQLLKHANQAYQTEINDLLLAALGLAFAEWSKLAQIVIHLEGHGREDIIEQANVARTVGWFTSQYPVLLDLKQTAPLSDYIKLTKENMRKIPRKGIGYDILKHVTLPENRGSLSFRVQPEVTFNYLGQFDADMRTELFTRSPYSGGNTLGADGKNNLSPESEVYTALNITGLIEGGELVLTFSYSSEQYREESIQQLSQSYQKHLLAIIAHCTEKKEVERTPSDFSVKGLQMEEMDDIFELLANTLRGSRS
Protocol: Under steady-state conditions, (S)-α-phenylalanine, (R)-β-phenylalanine, and (2R,3S)-phenylisoserine at 5, 10, 20, 40, 80, 160, 250, 500, 1000 and 2000 μM were separately incubated with TycA or TycA-S563A (20 μg) for 30 min. At the end of each reaction, and prior to mass spectrometry analysis, acetyl CoA (1 μM) was added as the internal standard to each sample to correct for variations of the analyte. The products of the enzyme-catalyzed reaction were quantified by a liquid chromatography multiple reaction monitoring (LC-ESI-MRM) mass spectrometry technique (Anderson & Hunter, Mol. Cell. Proteomics 5: 573-588 (2006)) on the Quattro-Premier Electro-Spray Mass Spectrometer coupled with Acquity® UPLC system fitted with a C18 Ascentis Express column (2.5×50 mm, 2.7 μm) at 30° C. An aliquot (5 μL) of each sample was loaded onto the column and the analytes were eluted with a solvent gradient of acetonitrile (Solvent A) in 0.05% triethylamine in distilled water (Solvent B). Elution was held at 2.5% Solvent A for 3.17 min, increased to 100% Solvent A over 5 sec with a 2-min hold, and then returned to 2.5% Solvent A over 5 sec with a 50-sec hold. The flow rate employed was 0.4 mL/min. The effluent from the chromatography column was directed to the mass spectrometer where the first quadrupole mass analyzer (in negative ion mode) was set to select for the molecular ion of a biosynthesized acyl CoA product. The selected ion was then directed to a collision gas chamber where the collision energy was optimized to maximize the abundance of a single signature fragment ion (m/z 408, characteristic of acyl CoA thioesters) resolved in the second quadrupole mass analyzer by the MRM method. The peak area under the curve of fragment ion m/z 408 for each biosynthetic phenylpropionyl CoA thioester was converted to concentration by comparing the peak area of the same ion produced by authentic CoA (at 0.05, 0.1, 0.2, 0.4, 0.8, 1.6, 3.2, 6.4, 12.5, 25, 50, 100 μM) using linear regression analysis.
The KM values of TycA and TycA-S563A for CoA were assessed by incubating each enzyme separately with (S)-α-phenylalanine (1 mM), MgCl2 (3 mM), ATP (1 mM), and CoA at 0.05, 0.1, 0.2, 0.4, 0.8, 1.6, 3.2, 6.4, 12.8 and 25.6 mM at 31° C. for 20 min. At the end of each reaction and prior to mass spectrometry analysis, acetyl CoA (1 μM) was added as the internal standard to each sample to correct for variations of the analyte. The products of the enzyme-catalyzed reaction were quantified by LC-ESI-MRM, and the monitored fragment ion (m/z 408) derived from the CoA moiety of the thioester analytes in the effluent was quantified identically to the procedure described earlier herein.

Propionyl-CL = Propionyl-CL (Salmonella typhimurium, UniProt P55912); settings: cited from earlier work
Propionyl-CL, sequence (P55912 whole entry): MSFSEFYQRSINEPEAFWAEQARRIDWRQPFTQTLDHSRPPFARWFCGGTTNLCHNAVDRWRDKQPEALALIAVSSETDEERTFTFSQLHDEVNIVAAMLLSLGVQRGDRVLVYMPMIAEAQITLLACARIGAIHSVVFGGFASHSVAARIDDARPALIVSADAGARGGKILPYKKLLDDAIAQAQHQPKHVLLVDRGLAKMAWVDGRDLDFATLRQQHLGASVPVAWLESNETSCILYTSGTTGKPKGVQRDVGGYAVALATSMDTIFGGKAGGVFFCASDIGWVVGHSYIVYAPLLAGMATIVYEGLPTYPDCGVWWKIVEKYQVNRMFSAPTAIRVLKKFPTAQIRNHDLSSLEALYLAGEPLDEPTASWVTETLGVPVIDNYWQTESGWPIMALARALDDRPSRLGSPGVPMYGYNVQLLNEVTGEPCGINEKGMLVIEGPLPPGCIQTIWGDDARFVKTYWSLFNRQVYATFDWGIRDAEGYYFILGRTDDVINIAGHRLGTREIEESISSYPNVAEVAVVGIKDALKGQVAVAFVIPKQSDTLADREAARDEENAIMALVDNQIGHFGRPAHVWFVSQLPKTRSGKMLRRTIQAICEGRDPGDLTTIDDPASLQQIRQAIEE

4-Chlorobenzoate-CL = settings: cited from earlier work
bacterial CoA Ligases = settings: literature range; cited from earlier work
Phenylacetate-CL = settings: cited from earlier work
Cinnamate-CL = settings: cited from earlier work
[1] = test system: CC(C)(COP(=O)(O)OP(=O)(O)OC[C@H]1O[C@@H](n2cnc3c(N)ncnc32)[C@H](O)[C@@H]1OP(=O)(O)O)[C@@H](O)C(=O)NCCC(=O)NCCS; assay: purified protein, by the assay type; settings: other: TycA-S563A, CoA 1 mM, ATP 1 mM, MgCl2 3 mM, 31° C., CoA with (S)-α-Phe as cosubstrate, pH 8.0
Protocol: At the end of each reaction, and prior to mass spectrometry analysis, acetyl CoA (1 μM) was added as the internal standard to each sample to correct for variations of the analyte. The products of the enzyme-catalyzed reaction were quantified by a liquid chromatography multiple reaction monitoring (LC-ESI-MRM) mass spectrometry technique (Anderson & Hunter, Mol. Cell. Proteomics 5: 573-588 (2006)) on the Quattro-Premier Electro-Spray Mass Spectrometer coupled with Acquity® UPLC system fitted with a C18 Ascentis Express column (2.5×50 mm, 2.7 μm) at 30° C. An aliquot (5 μL) of each sample was loaded onto the column and the analytes were eluted with a solvent gradient of acetonitrile (Solvent A) in 0.05% triethylamine in distilled water (Solvent B). Elution was held at 2.5% Solvent A for 3.17 min, increased to 100% Solvent A over 5 sec with a 2-min hold, and then returned to 2.5% Solvent A over 5 sec with a 50-sec hold. The flow rate employed was 0.4 mL/min. The effluent from the chromatography column was directed to the mass spectrometer where the first quadrupole mass analyzer (in negative ion mode) was set to select for the molecular ion of a biosynthesized acyl CoA product. The selected ion was then directed to a collision gas chamber where the collision energy was optimized to maximize the abundance of a single signature fragment ion (m/z 408, characteristic of acyl CoA thioesters) resolved in the second quadrupole mass analyzer by the MRM method. The peak area under the curve of fragment ion m/z 408 for each biosynthetic phenylpropionyl CoA thioester was converted to concentration by comparing the peak area of the same ion produced by authentic CoA (at 0.05, 0.1, 0.2, 0.4, 0.8, 1.6, 3.2, 6.4, 12.5, 25, 50, 100 μM) using linear regression analysis. The initial velocity (vo) of (S)-α-phenylalanyl-CoA, (R)-β-phenylalanyl-CoA and (2R,3S)-phenylisoserinyl-CoA made in separate assays was plotted against substrate concentration and fit by non-linear regression to the Michaelis-Menten equation (R^2 was typically between 0.90 and 0.99) to calculate the Michaelis parameters (KM and kcat).
The KM values of TycA and TycA-S563A for CoA were assessed by incubating each enzyme separately with (S)-α-phenylalanine (1 mM), MgCl2 (3 mM), ATP (1 mM), and CoA at 0.05, 0.1, 0.2, 0.4, 0.8, 1.6, 3.2, 6.4, 12.8 and 25.6 mM at 31° C. for 20 min. At the end of each reaction and prior to mass spectrometry analysis, acetyl CoA (1 μM) was added as the internal standard to each sample to correct for variations of the analyte. The products of the enzyme-catalyzed reaction were quantified by LC-ESI-MRM, and the monitored fragment ion (m/z 408) derived from the CoA moiety of the thioester analytes in the effluent was quantified identically to the procedure described earlier herein. […]

[2] = test system: C[C@@](N)(C(=O)O)c1ccccc1; assay: purified protein, by the assay type
N[C@H](CC(=O)O)c1ccccc1 = assay: purified protein, by the assay type
[3] = test system: mutation of phenylacetate CoA Ligase; settings: mutated enzyme; reaction to make β-Phenylpropanyl CoA; reduced from low mM; cited from earlier work
[4] = substrate: CC(=O)NCCS; assay: N-acetylcysteamine ligase reaction kinetics, TycA; format: biochemical, Brevibacillus brevis; settings: other: TycA with NAC; NAC with (S)-α-Phe as cosubstrate
Protocol: The reactions were quenched by acidification to a pH of about 2 (10% formic acid in distilled water). […] The samples were analyzed on a Quattro-Premier Electro-Spray Mass Spectrometer coupled with Acquity® UPLC system fitted with a C18 Ascentis Express column (2.5×50 mm, 2.7 μm) at 30° C. An aliquot (5 μL) of each sample was loaded onto the column and the analytes were eluted with a solvent gradient of (Solvent A) in 0.05% triethylamine in distilled water (Solvent B) (held at 2.5% Solvent A for 3.17 mM, increased to 100% A over 5 sec with a 2-min hold, and then returned to 2.5% Solvent A over 5 sec with a 50-sec hold) at a flow rate of 0.4 mL/min. In brief, the effluent from the chromatography column was directed to the Quattro Premier ESI mass spectrometer, in MRM scan mode, to quantify the biosynthetic acyl SNAC products. […] A standard curve was used to convert the peak area under the curve of the monitored fragment ion to concentration for each biosynthetic phenylpropionyl SNAC.
Authentic (5)-α-phenylalanyl, (R/S)-β-phenylalanyl- and (2R,3S)-phenylisoserinyl-SNAC were used to construct the standard curves by correlating the peak area under the curve of the monitored ion to concentration of the standard (at 0.16, 0.32, 0.64, 1.3, 2.5, 5, 10, 20, 40, 80, 160 and 320 μM) using linear regression analysis. […]

[5] = other: TycA-S563A with NAC, NAC with (S)-α-Phe as cosubstrate
[6] = other: TycA-S563A, CoA 1 mM, ATP 1 mM, MgCl2 3 mM, 31° C., CoA with (S)-α-Phe as cosubstrate, pH 8.0

In the case of `O=C(O)c1ccccc1` [benzoate], the Km (Benzoate-CL) is given as 11 µM and the kcat (Benzoate-CL) is given as 26,000 min^−1.

With `CC(C)(COP(=O)(O)OP(=O)(O)OC[C@H]1O[C@@H](n2cnc3c(N)ncnc32)[C@H](O)[C@@H]1OP(=O)(O)O)[C@@H](O)C(=O)NCCC(=O)NCCS` [CoA] the Km (TycA; TycA, CoA 1 mM, ATP 1 mM, MgCl2 3 mM, 31° C., CoA with (S)-α-Phe as cosubstrate) was 1980 ± 175 µM, the “kcat^CoA” value (TycA; TycA, turnover with CoA at apparent saturation, CoA with (S)-α-Phe as cosubstrate) was 0.0125 ± 0.00083 s⁻¹ and the “higher KM of TycA compared to that of TycA-S563A” value (TycA; dilution series of CoA with 1 mM (S)-α-Phe) was about 2.5 fold. The Km (Benzoate-CL) was 100 µM, the Km (Propionyl-CL) was 215 µM and the kcat (Propionyl-CL) was 42 s⁻¹. For the same molecule, the Km (4-Chlorobenzoate-CL) was 310 µM, the kcat (4-Chlorobenzoate-CL) was 9.3 s⁻¹ and the Km (bacterial CoA Ligases) was 100 to 940 µM. The Km (Phenylacetate-CL) was 940 µM.

For `CCC(=O)O` [propionate], the Km (Propionyl-CL) is given as 20 µM and the kcat (Propionyl-CL) is given as 33 s⁻¹.

For `O=C(O)/C=C/c1ccccc1` [Cinnamate], the Km (Cinnamate-CL) is listed as 190 µM and the kcat (Cinnamate-CL) is listed as 0.475 s⁻¹.

Work on “TycA-S563A (Brevibacillus parabrevis; S563A)” yielded a Km [1] of 804 ± 26 µM, a kcat [1] of 0.015 ± 0.0013 s⁻¹ and a Km [2, 5] of 37.8 ± 1.6 µM. It also gave a kcat [2, 5] of 0.003333 ± 3.33e-05 s⁻¹, a Km [2, 6] of 33.9 ± 4.0 µM and a Km (N[C@H](CC(=O)O)c1ccccc1; [5]) of 58.9 ± 6.4 µM. For the same molecule, the kcat (N[C@H](CC(=O)O)c1ccccc1; [5]) was 0.0004 ± 1.67e-05 s⁻¹ and the Km (N[C@H](CC(=O)O)c1ccccc1; [6]) was 62.3 ± 1.0 µM.

For `NC(CC(=O)O)c1ccccc1` (stereo not drawn) [β-Phe], the Km [3] is given as 0.068 mM.

B1: TycA (Brevibacillus parabrevis) (protein)
chain: T1 sequence (P09095 with tags, fused parts or gaps)
notes: this wild-type tycA cDNA encoding the A-, T-, and E-domains was subcloned into a pSU18 vector; made in house; host or cells: Escherichia coli BL21(DE3)
With B1 the Km [4] was 153 ± 22 µM and the kcat [4] was 0.0015 ± 0.000167 s⁻¹.
